Measured values published in ChEMBL document CHEMBL1139135, “Orally active 4-amino-5-diarylurea-furo[2,3-d]pyrimidine derivatives as anti-angiogenic agent inhibiting VEGFR2 and Tie-2” (Bioorg Med Chem Lett, 2007).
Blank lines part the entries; values can stand above or below the molecule they belong to. Calls of active or inactive are those of the source. The calls are words filed in the database; no cut-off is given here.

What was measured:
[1] = biological target: Vascular endothelial growth factor receptor 2 (Homo sapiens, UniProt P35968); test: Inhibition of human VEGFR2 by HTRF method
Sequence of Vascular endothelial growth factor receptor 2 (P35968 whole entry, looked up): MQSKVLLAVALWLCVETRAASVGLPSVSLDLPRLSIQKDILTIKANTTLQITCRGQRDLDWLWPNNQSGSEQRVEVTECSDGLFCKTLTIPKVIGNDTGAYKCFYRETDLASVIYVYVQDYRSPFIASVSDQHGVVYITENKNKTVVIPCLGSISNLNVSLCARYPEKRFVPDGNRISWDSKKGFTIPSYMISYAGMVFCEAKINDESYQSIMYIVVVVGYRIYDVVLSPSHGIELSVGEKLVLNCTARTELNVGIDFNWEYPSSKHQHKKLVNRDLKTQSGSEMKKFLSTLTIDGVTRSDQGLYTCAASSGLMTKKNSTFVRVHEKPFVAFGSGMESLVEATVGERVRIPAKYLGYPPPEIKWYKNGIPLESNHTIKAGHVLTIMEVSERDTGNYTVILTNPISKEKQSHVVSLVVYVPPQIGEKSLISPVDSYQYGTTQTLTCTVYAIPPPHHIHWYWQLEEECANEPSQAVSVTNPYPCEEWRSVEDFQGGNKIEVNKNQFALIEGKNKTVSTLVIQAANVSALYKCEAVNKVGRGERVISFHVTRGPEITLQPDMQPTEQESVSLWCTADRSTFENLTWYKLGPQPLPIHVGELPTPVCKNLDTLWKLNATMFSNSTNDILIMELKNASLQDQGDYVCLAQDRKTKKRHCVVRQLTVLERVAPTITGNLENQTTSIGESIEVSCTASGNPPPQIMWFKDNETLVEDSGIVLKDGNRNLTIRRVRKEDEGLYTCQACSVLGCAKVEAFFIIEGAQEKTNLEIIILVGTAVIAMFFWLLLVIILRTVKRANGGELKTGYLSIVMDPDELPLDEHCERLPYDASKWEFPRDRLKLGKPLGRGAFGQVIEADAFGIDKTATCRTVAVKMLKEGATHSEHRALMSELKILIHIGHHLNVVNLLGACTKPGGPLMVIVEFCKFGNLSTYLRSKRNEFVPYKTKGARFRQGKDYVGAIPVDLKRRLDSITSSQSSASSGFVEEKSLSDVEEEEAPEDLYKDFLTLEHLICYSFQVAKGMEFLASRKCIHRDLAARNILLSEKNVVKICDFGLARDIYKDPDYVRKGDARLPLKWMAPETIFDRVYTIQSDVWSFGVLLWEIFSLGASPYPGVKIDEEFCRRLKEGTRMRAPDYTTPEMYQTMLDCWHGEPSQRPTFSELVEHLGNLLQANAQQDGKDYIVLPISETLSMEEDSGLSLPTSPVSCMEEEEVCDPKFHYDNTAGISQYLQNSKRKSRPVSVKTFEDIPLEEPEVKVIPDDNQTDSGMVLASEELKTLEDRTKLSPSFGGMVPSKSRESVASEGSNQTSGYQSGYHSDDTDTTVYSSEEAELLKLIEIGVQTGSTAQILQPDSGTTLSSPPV

Angiopoietin-1 receptor [2] = biological target: T1, Angiopoietin-1 receptor (Homo sapiens, UniProt Q02763); test: Inhibition of human Tie2 by HTRF method
Target sequence in this assay (Q02763 whole entry): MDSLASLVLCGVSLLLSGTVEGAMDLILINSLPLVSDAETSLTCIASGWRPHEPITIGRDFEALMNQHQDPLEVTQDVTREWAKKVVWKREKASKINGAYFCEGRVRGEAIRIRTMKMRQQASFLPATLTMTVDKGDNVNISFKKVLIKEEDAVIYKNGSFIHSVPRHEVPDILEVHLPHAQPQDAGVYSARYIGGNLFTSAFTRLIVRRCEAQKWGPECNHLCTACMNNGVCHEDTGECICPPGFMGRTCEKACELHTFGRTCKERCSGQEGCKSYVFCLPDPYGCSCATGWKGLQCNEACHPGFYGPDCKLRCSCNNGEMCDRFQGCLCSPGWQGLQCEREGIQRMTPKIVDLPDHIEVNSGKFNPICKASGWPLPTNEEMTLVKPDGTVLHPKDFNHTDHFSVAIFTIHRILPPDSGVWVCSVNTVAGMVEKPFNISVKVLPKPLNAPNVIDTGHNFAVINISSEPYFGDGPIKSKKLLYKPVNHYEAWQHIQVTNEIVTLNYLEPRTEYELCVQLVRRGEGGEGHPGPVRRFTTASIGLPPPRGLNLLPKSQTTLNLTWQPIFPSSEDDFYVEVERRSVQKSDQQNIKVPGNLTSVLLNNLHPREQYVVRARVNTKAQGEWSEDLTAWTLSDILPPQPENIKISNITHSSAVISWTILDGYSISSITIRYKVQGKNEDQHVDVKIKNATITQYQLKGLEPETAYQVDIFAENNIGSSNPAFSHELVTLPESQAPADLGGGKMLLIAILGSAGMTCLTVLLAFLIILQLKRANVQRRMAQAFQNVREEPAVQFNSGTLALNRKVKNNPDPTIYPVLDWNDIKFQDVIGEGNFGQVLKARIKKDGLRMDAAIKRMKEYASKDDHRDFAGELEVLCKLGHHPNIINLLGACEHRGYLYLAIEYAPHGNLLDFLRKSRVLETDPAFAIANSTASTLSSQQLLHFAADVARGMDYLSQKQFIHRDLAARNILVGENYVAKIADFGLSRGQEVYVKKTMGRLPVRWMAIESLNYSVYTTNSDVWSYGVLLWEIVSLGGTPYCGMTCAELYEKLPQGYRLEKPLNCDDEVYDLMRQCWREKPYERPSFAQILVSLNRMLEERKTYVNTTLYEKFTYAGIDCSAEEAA

[3] = biological target: Glycogen synthase kinase-3 (Homo sapiens, UniProt P49840+P49841); test: Inhibition of human GSK3; type: protein assay
HT-29 [4] = test: Antiangiogenic activity against human HT29 cells xenografted in nude CD1 mouse assessed as decrease in blood vessel density at 30 mg/kg, po; type: functional; design: scale not given: the % may be the effect or the level left
HT-29 [5] = test: Cytotoxicity against human HT29 cells after 3 days; settings: HT-29, 72 h
[6] = biological target: Cyclin-dependent kinase 2 (Homo sapiens, UniProt P24941); test: Inhibition of human CDK2
[7] = biological target: Platelet-derived growth factor receptor (Homo sapiens, UniProt P09619+P16234); test: Inhibition of human PDGFR; type: protein-complex assay
[8] = Cmax in CD1 mouse at 10.7 mg/kg, po; type: ADME, organism-based; design: dose 10.7 mg/kg, route oral; settings: in vivo
[9] = biological target: Epidermal growth factor receptor (Homo sapiens, UniProt P00533); test: Inhibition of human EGFR
[10] = biological target: Vascular endothelial growth factor receptor 3 (Homo sapiens, UniProt P35916); test: Inhibition of human VGFR3
Sequence of Vascular endothelial growth factor receptor 3 (P35916 whole entry): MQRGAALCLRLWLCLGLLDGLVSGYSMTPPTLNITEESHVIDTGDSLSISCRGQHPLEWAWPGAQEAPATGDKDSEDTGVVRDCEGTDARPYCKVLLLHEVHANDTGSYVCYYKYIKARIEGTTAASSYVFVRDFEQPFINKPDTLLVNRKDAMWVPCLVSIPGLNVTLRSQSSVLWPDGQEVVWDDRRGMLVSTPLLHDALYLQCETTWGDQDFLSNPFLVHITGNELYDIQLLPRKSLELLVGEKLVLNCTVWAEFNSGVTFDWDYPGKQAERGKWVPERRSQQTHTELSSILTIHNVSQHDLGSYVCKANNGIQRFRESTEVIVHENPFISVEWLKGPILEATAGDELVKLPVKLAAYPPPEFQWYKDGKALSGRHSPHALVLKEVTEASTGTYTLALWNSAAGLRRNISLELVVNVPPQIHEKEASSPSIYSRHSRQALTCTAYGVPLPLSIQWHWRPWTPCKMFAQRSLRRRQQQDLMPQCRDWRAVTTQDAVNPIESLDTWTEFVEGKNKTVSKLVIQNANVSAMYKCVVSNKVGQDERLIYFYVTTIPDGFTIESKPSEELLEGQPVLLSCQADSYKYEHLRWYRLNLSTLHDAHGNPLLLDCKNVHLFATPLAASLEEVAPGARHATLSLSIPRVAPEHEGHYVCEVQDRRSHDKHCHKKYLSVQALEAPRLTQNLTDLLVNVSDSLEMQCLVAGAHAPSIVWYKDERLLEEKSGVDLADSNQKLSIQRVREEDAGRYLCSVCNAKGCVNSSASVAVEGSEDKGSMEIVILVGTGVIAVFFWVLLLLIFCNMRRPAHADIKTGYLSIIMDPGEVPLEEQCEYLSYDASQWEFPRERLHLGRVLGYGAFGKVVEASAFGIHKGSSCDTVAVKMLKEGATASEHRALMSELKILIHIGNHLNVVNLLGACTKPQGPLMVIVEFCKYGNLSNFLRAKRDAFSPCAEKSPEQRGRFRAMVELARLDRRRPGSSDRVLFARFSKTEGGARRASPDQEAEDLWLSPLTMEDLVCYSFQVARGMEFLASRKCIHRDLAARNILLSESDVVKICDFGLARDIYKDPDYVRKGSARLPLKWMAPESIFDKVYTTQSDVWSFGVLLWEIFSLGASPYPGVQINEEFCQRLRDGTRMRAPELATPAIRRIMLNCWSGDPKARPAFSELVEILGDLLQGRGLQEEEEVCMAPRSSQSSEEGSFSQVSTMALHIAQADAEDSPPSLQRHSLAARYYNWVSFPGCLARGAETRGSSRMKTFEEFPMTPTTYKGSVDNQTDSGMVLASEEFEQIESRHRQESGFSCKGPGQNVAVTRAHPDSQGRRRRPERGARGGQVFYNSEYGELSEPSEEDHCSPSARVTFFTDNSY

HFF = test: Cytotoxicity against human HFF cells after 3 days; settings: 72 h
HT-29 [11] = test: Inhibition of tumor growth in human HT29 cells xenografted in orally dosed nude CD1 mouse; type: functional, organism-based
[12] = biological target: Macrophage colony-stimulating factor 1 receptor (Homo sapiens, UniProt P07333); test: Inhibition of human cFMS
HT-29 [13] = test: Antiangiogenic activity against human HT29 cells xenografted in nude CD1 mouse; type: functional
HT-29 [14] = test: Antiangiogenic activity against human HT29 cells xenografted in nude CD1 mouse assessed as decrease in blood vessel density at 10 mg/kg, po; type: functional; design: scale not given: the % may be the effect or the level left
HT-29 [15] = test: Antiangiogenic activity against human HT29 cells xenografted in nude CD1 mouse assessed as decrease in blood vessel density at 3 mg/kg, po; type: functional; design: scale not given: the % may be the effect or the level left
HUVEC = test: Growth inhibition of VEGF-stimulated human HUVEC cells
[16] = Tmax in CD1 mouse at 10.7 mg/kg, po; type: ADME, organism-based; design: dose 10.7 mg/kg, route oral; settings: in vivo
[17] = biological target: Proto-oncogene tyrosine-protein kinase Src (Homo sapiens, UniProt P12931); test: Inhibition of human SRC
Sequence of Proto-oncogene tyrosine-protein kinase Src (P12931 2-536 limits assumed): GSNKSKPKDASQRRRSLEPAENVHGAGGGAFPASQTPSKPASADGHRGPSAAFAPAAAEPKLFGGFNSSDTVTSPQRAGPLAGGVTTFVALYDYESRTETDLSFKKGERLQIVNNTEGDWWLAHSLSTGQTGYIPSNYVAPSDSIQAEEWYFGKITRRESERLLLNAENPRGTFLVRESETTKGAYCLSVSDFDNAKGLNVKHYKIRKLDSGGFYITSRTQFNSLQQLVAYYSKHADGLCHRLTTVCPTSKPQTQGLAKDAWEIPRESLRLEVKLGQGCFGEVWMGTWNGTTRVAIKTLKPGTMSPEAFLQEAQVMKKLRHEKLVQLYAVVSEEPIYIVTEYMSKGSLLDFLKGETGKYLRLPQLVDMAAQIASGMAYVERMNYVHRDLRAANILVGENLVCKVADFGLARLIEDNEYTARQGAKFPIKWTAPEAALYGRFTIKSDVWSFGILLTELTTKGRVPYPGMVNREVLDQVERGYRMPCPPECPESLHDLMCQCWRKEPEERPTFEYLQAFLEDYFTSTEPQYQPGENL

Angiopoietin-1 receptor [18] = biological target: T1, Angiopoietin-1 receptor; test: Inhibition of c-fms/Tie2 chimeric receptor transfected in 3T3 cell assessed as autophosphorylation activity; type: cell-based
[19] = biological target: Vascular endothelial growth factor receptor 1 (Homo sapiens, UniProt P17948); test: Inhibition of human VEGFR1
[20] = AUC (0 to t) in CD1 mouse at 10.7 mg/kg, po; type: ADME, organism-based; design: dose 10.7 mg/kg, route oral; settings: plasma
[21] = biological target: RAC-gamma serine/threonine-protein kinase (Homo sapiens, UniProt Q9Y243); test: Inhibition of human Akt3
Sequence of RAC-gamma serine/threonine-protein kinase (Q9Y243 whole entry): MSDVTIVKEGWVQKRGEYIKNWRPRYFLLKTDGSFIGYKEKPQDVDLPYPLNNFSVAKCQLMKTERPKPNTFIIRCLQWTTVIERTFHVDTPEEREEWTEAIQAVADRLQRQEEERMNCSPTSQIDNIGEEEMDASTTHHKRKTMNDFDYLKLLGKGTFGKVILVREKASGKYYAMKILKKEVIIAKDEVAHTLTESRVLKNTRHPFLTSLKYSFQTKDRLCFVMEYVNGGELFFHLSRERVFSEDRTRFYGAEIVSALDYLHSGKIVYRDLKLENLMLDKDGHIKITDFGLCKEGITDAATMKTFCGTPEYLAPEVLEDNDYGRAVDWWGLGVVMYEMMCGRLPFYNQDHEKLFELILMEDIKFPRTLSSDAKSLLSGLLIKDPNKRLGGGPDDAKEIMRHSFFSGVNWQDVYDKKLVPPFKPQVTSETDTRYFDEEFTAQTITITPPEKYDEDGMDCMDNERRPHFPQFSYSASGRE

Structure (SMILES): Nc1ncnc2occ(-c3ccc(NC(=O)Nc4cccc5ccccc45)cc3)c12
IC50 [1]: 447 nM | IC50 (Angiopoietin-1 receptor [2]): 182 nM

Structure (SMILES): Nc1ncnc2occ(-c3ccc(NC(=O)Nc4cccc(Oc5ccccc5)c4)cc3)c12
IC50 [1]: 1740 nM | IC50 (Angiopoietin-1 receptor [2]): 407 nM

Structure (SMILES): COc1ccc(F)c(NC(=O)Nc2ccc(-c3coc4ncnc(N)c34)cc2)c1
IC50 [1]: 331 nM | IC50 (Angiopoietin-1 receptor [2]): 224 nM

Structure (SMILES): Nc1ncnc2occ(-c3ccc(NC(=O)Nc4cc(C(F)(F)F)ccc4Cl)cc3)c12
IC50 [1]: 186 nM | IC50 (Angiopoietin-1 receptor [2]): 204 nM

Structure (SMILES): Nc1ncnc2occ(-c3ccc(NC(=O)Nc4cc(C(F)(F)F)cc(C(F)(F)F)c4)cc3)c12 [GW795486X]
IC50 (Angiopoietin-1 receptor [2]): 380 nM

Stronger by IC50 (Angiopoietin-1 receptor [2]), values ahead:

IC50 [1]: 24 nM | IC50 (Angiopoietin-1 receptor [2]): 81.3 nM
Structure (SMILES): Nc1ncnc2occ(-c3ccc(NC(=O)Nc4ccc5ccccc5c4)cc3)c12

Log IC50 [3]: -5.66 | IC50 [1]: 7.76 nM | IC50 [6]: 17800 nM | IC50 [7]: 27.5 nM | Cmax [8]: 2720 ng/mL | IC50 [9]: 10000 nM | IC50 [10]: 7.59 nM | IC50 [12]: 38.9 nM | IC50 (Angiopoietin-1 receptor [2]): 13.5 nM | Tmax [16]: 2 h | IC50 [17]: 537 nM | IC50 (Angiopoietin-1 receptor [18]): 18.3 nM | IC50 [19]: 8.51 nM | AUC(0-t) [20]: 20000 ng·h/mL | IC50 [21]: 17400 nM
Structure (SMILES): Nc1ncnc2occ(-c3ccc(NC(=O)Nc4cc(C(F)(F)F)ccc4F)cc3)c12 [GW770249X]
Activity (HT-29 [4]): 62.9% | IC50 (HT-29 [5]): 5080 nM | IC50 (HFF): 2510 nM | Activity (HT-29 [11]): Dose-dependent effect | Activity (HT-29 [13]): Active | Activity (HT-29 [14]): 35.6% | Activity (HT-29 [15]): 24.3% | IC50 (HUVEC): 2.6 nM

IC50 [1]: 7.08 nM | IC50 (Angiopoietin-1 receptor [2]): 10.2 nM
Structure (SMILES): Nc1ncnc2occ(-c3ccc(NC(=O)Nc4cccc(C(F)(F)F)c4)cc3)c12 [GW795493X]
